US20250263441A1 (Metanovas Biotech Inc., priority 2024, published 2025)
“And” between values parts separate entries of the source, which are not always exact repeats. Equal entries are not always repeated.

Columns and labels:
Type in all cases: cell-based
[1] = tested on: Staphylococcus aureus (ATCC: 25913); assay: Inhibitory effect of AMP-33 on Staphylococcus aureus (viability, OD 630 nm); conditions: for Viability of Staphylococcus aureus: 24 hours, repeated experiments
Protocol: (1) Staphylococcus aureus and Escherichia coli were inoculated into LB liquid medium and cultured overnight under aerobic conditions at 37° C. and […] on a shaker.
(2) 200 μL of LB liquid culture medium and a predetermined concentration of peptide AMP-33 were added to a 96-deep-well plate. Then, 10 μL of the Staphylococcus aureus/Escherichia coli solution was inoculated (mixed well before inoculation).
(3) After incubating at […] for 24 hours on a shaking table at 37° C., the turbidity of the bacterial solution was observed. A volume of 100 μL of the solution was taken, and the OD at 630 nm was measured using an enzyme-linked immunosorbent assay (ELISA) reader (after multiple blows and mixing).
[formula] • OD Measurement: OD value of the test peptide. • ODneg: OD value with no bacterial inoculation, containing only […] medium. • ODpos: OD value with bacterial inoculation and without inhibitors.

[2] = tested on: Candida albicans; assay: Minimum inhibitory concentration on Candida albicans (liquid culture); conditions: 37° C., 24 to 48 hours
Protocol: Primary screening of liquid culture: the peptides in Examples 1 to 2 were dissolved in pure water to a concentration of 100 μg/mL. Using a micropipette, 10 μL of the peptides were added to a new 96-well plate in order from left to right, starting from the second compartment. Positive and negative controls were established for use. The 96-well plates were arranged vertically, and the peptide concentrations of the control groups were the same as those of the antimicrobial peptide. The control groups consisted of: pure water and bacteria, antimicrobial peptide FK13 and bacteria, and antimicrobial peptide HPA3NT3 and bacteria. An aseptic medium was used. The amino acid sequence of FK13 is […] (SEQ ID NO: 5), and the amino acid sequence of HPA3NT3 is […] (SEQ ID NO: 6).
(§1) If a 96-deep-well plate was used to culture bacteria, an additional 100 μL of sterile medium was added to all wells.
Candida albicans was inoculated in LB medium with normal oxygen concentration (21%) for 48 hours. […] clones were picked and incubated in LB medium at 37° C. with normal oxygen concentration (21%) for 48 hours. The bacterial concentration was measured and diluted to 107 CFU/mL with culture medium for use.
The prepared fresh bacterial suspension was diluted to 105 CFU/mL and added to the 96-well plate with 90 μL of the bacterial suspension per well, and incubated at 37° C. with normal oxygen concentration for 24 to 48 hours. The absorbance at 630 nm was measured with a microplate reader, and the degree of turbidity was observed by the naked eye.
(§2) (iv) Repetition of Operations: The Operations in (iii) were Repeated Twice, and the Decision to Perform a Third Repetition was Based on the Reproducibility of the Experiment.

[3] = tested on: Staphylococcus aureus; assay: Minimum inhibitory concentration on Staphylococcus aureus (liquid culture); conditions: 37° C., 24 to 48 hours
Protocol: (§3) Primary screening of liquid culture: the peptides in Examples 1 to 2 were dissolved in pure water to a concentration of 100 μg/mL. Using a micropipette, 10 μL of the peptides were added to a new 96-well plate in order from left to right, starting from the second compartment. Positive and negative controls were established for use. The 96-well plates were arranged vertically, and the peptide concentrations in the control groups were the same as those of the antimicrobial peptides. The control groups included: pure water and bacteria, antimicrobial peptide FK13 and bacteria, antimicrobial peptide HPA3NT3 and bacteria, and ciprofloxacin and bacteria. An aseptic medium was used.
as §1
Staphylococcus aureus was inoculated in LB medium with a normal oxygen concentration (21%) for 48 hours. Staphylococcus aureus clones were picked and incubated in LB medium at 37° C. with a normal oxygen concentration (21%) for an additional 48 hours. The bacterial concentration was measured and diluted to 107 CFU/mL with culture medium for use.
(§4) The prepared fresh bacterial suspension was diluted to 105 CFU/mL and added to the 96-well plate with 90 μL of the bacterial suspension per well. The plate was incubated at 37° C. with a normal oxygen concentration for 24 to 48 hours (Propionibacterium acnes was cultured anaerobically at 37° C. for 24 to 48 hours in an anaerobic bag). The absorbance at 630 nm was measured using a microplate reader, and the degree of turbidity was observed by the naked eye.
as §2

[4] = tested on: Mouse macrophage RAW264.7 cells; assay: NO concentration after treatment of LPS-stimulated RAW264.7 cells; conditions: LPS 10 ng/ml, 24 hours, replicate experiments
Protocol: (1) Mouse macrophage RAW264.7 cells were cultured in DMEM supplemented with 10% fetal bovine serum (FBS) and 1% penicillin and streptomycin (P/S) at 37° C. in a 5% CO2 incubator.
(2) 5×10^4 mouse-derived RAW264.7 macrophages were placed in 12-well cell culture plates and cultured for 24 hours. Then, 20 μL of PBS (negative control), Dexamethasone (positive control), and the test peptide were added to the wells for incubation for 2 hours. Afterward, 10 ng/ml of lipopolysaccharide (LPS) was mixed with RAW264.7 cells and incubated for 24 hours.
(3) The supernatant was collected, and NO and IL-6/IL-1ß expression levels were measured using a commercial kit.

[5] = tested on: Escherichia coli; assay: Minimum inhibitory concentration on Escherichia coli (liquid culture); conditions: 37° C., 24 to 48 hours
Protocol: as §3, §1
E. coli was inoculated in LB medium with normal oxygen concentration (21%) for 48 hours. E. coli clones were picked and incubated in LB medium at 37° C. with normal oxygen concentration (21%) for an additional 48 hours. The bacterial concentration was measured and diluted to 107 CFU/mL with culture medium for use.
as §4, §2

Example 2: LSKWLKKLGKLLAG (designated as AMP33)
Viability of Staphylococcus aureus ([1]; 1 μg/mL): 117.78 and 116.41 and 116.45 | Viability of Staphylococcus aureus ([1]; 2 μg/mL): 121.60 and 104.84 and 102.77 | Viability of Staphylococcus aureus ([1]; 4 μg/mL): 88.75 and 109.74 and 132.77 | Viability of Staphylococcus aureus ([1]; 8 μg/mL): 98.53 and 99.19 and 97.03 | inhibition of Staphylococcus aureus ([1]; 50 ppm): over 99% | Minimum inhibitory concentration on Candida albicans [2]: 25 µg/mL | Minimum inhibitory concentration on Staphylococcus aureus [3]: 12.5 µg/mL | NO concentration ([4]; AMP-33 2 μg/mL): 12.70 µM and 13.54 µM and 13.37 µM | NO concentration ([4]; AMP-33 4 μg/mL): 12.35 µM and 12.14 µM and 11.10 µM | NO concentration ([4]; AMP-33 8 μg/mL): 10.26 µM and 10.75 µM and 11.10 µM | NO concentration ([4]; AMP-33 25 μg/mL): 2.82 µM and 2.89 µM and 3.83 µM | NO concentration ([4]; AMP-33 50 μg/mL): 1.27 µM and 1.33 µM and 1.60 µM | NO concentration ([4]; AMP-33 100 μg/mL): 1.60 µM and 1.13 µM and 1.54 µM | Minimum inhibitory concentration on Escherichia coli [5]: 50 µg/mL
